Laboratory results: US8324261B2, “Histidine derivatives” (Nippon Zoki Pharmaceutical Co., Ltd., priority 2007, dated 2012)
Where two headings read alike, the source gives them in different places.

Legend:
[1] = tested on: SART stressed mouse; experiment: Test for analgesic effect (1): SART stressed mouse, modified Randall-Selitto tail pressure method; assay type: in vivo, mice; details: for Analgesic coefficient: 25 ng per mouse into the lateral ventricle, 30 minutes after administration, pain threshold of test group divided by that of SART control group, 1.0 = no effect
[2] = tested on: mice; experiment: Test for analgesic effect (4): acetic acid writhing test; assay type: in vivo; details: oral single dose; 0.7% acetic acid i.p. 25 minutes after; writhing numbers during 10 minutes
Protocol: The compounds of the present invention or the carboxylic acid type thereof were orally administered to mice and a test for an analgesic effect was carried out by means of an acetic acid writhing test. As to the test animals, male mice of ddY strain of four weeks age were subjected to a preliminary breeding and they were used where one group comprised ten mice. Each of the compound of the present invention or the carboxylic acid type thereof as a test substance was orally administered in a single dose while, to a control group, distilled water (water for injection) was administered similarly. After 25 minutes from the administration of the test substance, a 0.7% acetic acid/physiological saline was intraperitoneally administered at the dose of 10 mL/kg. From 5 minutes thereafter, writhing numbers during 10 minutes were counted and a suppressive rate for each mouse was calculated according to the following formula. Suppressive Rate (%)=[(Mean writhing numbers of the control group)−(Writhing numbers of each mouse)]÷[Mean writhing numbers of the control group]×100

[3] = tested on: Chung model rat; experiment: Test for analgesic effect (2)/(3): Chung model rat, mechanical allodynia by von Frey filament; assay type: in vivo, rats
Protocol: A test for analgesic effect was conducted using a Chung model rat which is a neuropathic pain model. As to the test animal, male rats of Wistar strain of nine weeks age were used and model rats were prepared in accordance with the method of Kim and Chung (Pain, vol. 50, pages 355 to 363, 1992). Thus, under anesthetization with pentobarbital (40 mg/kg, intraperitoneal administration), rat L5 spinal nerve was exposed and L5 dorsal root ganglion periphery side was strongly ligated using 5-0 silk yarn. The animals were placed in a transparent acrylate cage whose bottom was made of wire net, a 50% reaction threshold value was calculated by an up-down method using a von Frey filament (manufactured by North Coast Medical Inc.) according to the methods of Chaplan, et al. (J. Neurosci. Method, vol. 53, pages 55 to 63, 1994) and by Lee, et al. (J. Neurophysiol., vol. 81, pages 2226 to 2233, 1999) and measurement of allodynia was conducted. Before injury of spinal nerve, the 50% reaction threshold value was measured twice and the animals where the threshold value was outside the standard were excluded from the operation for spinal nerve injury. […] Those test animals were made into groups of seven animals so that the mean value of 50% reaction threshold after 28 days from the nerve injury as an index became nearly the same in each group.
The carboxylic acid type of the compounds of the present invention as a test substance was intraperitoneally administered in a single dose while, a 0.5% CMC-Na/physiological saline solution was administered similarly to a nerve injury control group. After 30 minutes from the administration of the test substance, allodynia was measured to calculate a 50% reaction threshold value. With regard to a significance test, Paired t-test was conducted for comparison between before and after the nerve injury and Dunnett's multiple comparison test was used for comparison among multiple groups of the nerve injury control group and the test substance administration group.
According to the same manner as in the above Test for Analgesic Effect (2), each of Compound 12 of the present invention (3 mg/kg, 10 mg/kg) and Carboxylic acid substance A of the compound of the present invention (10 mg/kg) was orally administered in a single dose as the test substance to Chung model rats. Allodynia after 0, 15, 30, 60 and 120 minutes from the administration was measured for each of the test substance administration group and the nerve injury control group whereupon a 50% reaction threshold value was calculated.

[4] = Test of kinetics in blood of rats; assay type: in vivo
Protocol: Each of the compound of the present invention and the carboxylic acid type A thereof was dissolved in DMSO, diluted with water. A sample solution (1% DMSO solution) made into 2 mg/mL was orally administered in a single dose to the fasted Wistar strain SPF male rats of seven weeks age using a stomach tube (10 mg/5 mL/kg). At the stages of 0.25, 0.5, 1, 2, 4 and 8 hour(s) after the administration, about 150 μL of the blood was collected from tail vein using a capillary to which heparin was added and said capillary was centrifuged to collect the plasma. Protein was removed from the plasma sample and the supernatant liquid was diluted to prepare each sample solution for the measurement.

[5] = design: species or system cynomolgus monkeys; details: cynomolgus monkey, in vivo, 30 mg/kg
Protocol: Each of the compound of the present invention and Carboxylic acid type A thereof dissolved or suspended in a hydrochloric acid solution was diluted with water. […] At the stages of before the administration and of 0.25, 0.5, 1, 2, 4, 8 and 24 hour(s) after the administration, the blood was collected from femoral vein using a syringe to which heparin was added followed by subjecting to centrifugation to collect the plasma. Collection of the blood was conducted for three times in total where one collection was done with each blank term of six days for each test substance. Concentration of Carboxylic acid type A in each of the collected plasma samples was quantified by an LC-MS and Cmax (maximum drug concentration in plasma) and AUC (area under blood concentration time curve; 0 to ∞ hour(s)) of the compound of the present invention and Carboxylic acid type A thereof were calculated.

## CC=CC(=O)N[C@@H](Cc1cncn1C)C(=O)O [Carboxylic acid type B, N^α-crotonoyl-N^π-methyl-L-histidine]
[1]
  Analgesic coefficient: 1.23

## CCn1cncc1C[C@H](NC(=O)C=Cc1ccccc1)C(=O)O [Carboxylic acid type C, N^α-3-phenylpropenoyl-N^π-ethyl-L-histidine]
[2]
  Suppressive Rate (%): 27.7%
[1]
  Analgesic coefficient: 1.14

## C=CC(=O)N[C@@H](Cc1cncn1Cc1ccccc1)C(=O)O [Carboxylic acid type D, N^α-acryloyl-N^π-benzyl-L-histidine]
[3]; intraperitoneal single dose
  threshold as compared with the nerve injury control group: significant increase in the threshold
[3]; intraperitoneally 400 μg/kg single dose, 30 minutes after administration
  50% reaction threshold value: 7.32 g
[2]
  Suppressive Rate (%): 37.9%

## CC(C)=CC(=O)N[C@@H](Cc1cncn1C)C(=O)O [Carboxylic acid type E, N^α-3-metylcrotonoyl-N^π-methyl-L-histidine]
[2]
  Suppressive Rate (%): 17.8%

## C=CC(=O)N[C@@H](Cc1cncn1C)C(=O)OC [Compound 1, N^α-acryloyl-N^π-methyl-L-histidine methyl ester]
[4]; rat, in vivo, po, 10 mg/kg
  AUC: 2027.6 ng·h/mL
  Cmax: 1623.9 ng/mL

## C=CC(=O)N[C@@H](Cc1cncn1C)C(=O)OCC [Compound 2, N^α-acryloyl-N^π-methyl-L-histidine ethyl ester]
[4]; rat, in vivo, po, 10 mg/kg
  AUC: 3468.0 ng·h/mL
  Cmax: 2719.4 ng/mL

## C=CC(=O)N[C@@H](Cc1cncn1C)C(=O)OCC(C)(C)C [Compound 3, N^α-acryloyl-N^π-methyl-L-histidine neopentyl ester]
[4]; rats, oral 10 mg/kg single dose, 0 to 8 hours, Carboxylic acid type A quantified in plasma, values converted to dose equimolar to Carboxylic acid type A
  AUC: 2373.9 ng·h/mL
[4]; rats, oral 10 mg/kg single dose, Carboxylic acid type A quantified in plasma, values converted to dose equimolar to Carboxylic acid type A
  Cmax: 2074.0 ng/mL

## C=CC(=O)N[C@@H](Cc1cncn1C)C(=O)OCCC(C)C [Compound 4, N^α-acryloyl-N^π-methyl-L-histidine isopentyl ester]
[4]; rat, in vivo, po, 10 mg/kg
  AUC: 2641.8 ng·h/mL
  Cmax: 2144.0 ng/mL

## C=CC(=O)N[C@@H](Cc1cncn1C)C(=O)OCCC(C)(C)C [Compound 5, N^α-acryloyl-N^π-methyl-L-histidine 3,3-dimethylbutyl ester]
[4]; rat, in vivo, po, 10 mg/kg
  AUC: 3264.2 ng·h/mL
  Cmax: 2761.6 ng/mL

## C=CC(=O)N[C@@H](Cc1cncn1C)C(=O)OCCCC [Compound 6, N^α-acryloyl-N^π-methyl-L-histidine butyl ester]
[4]; rat, in vivo, po, 10 mg/kg
  AUC: 2774.6 ng·h/mL
  Cmax: 2407.2 ng/mL

## C=CC(=O)N[C@@H](Cc1cncn1C)C(=O)OCc1ccc(C)cc1 [Compound 9, N^α-acryloyl-N^π-methyl-L-histidine 4-methylbenzyl ester]
[4]; rat, in vivo, po, 10 mg/kg
  AUC: 3750.7 ng·h/mL
  Cmax: 2671.7 ng/mL

## C=CC(=O)N[C@@H](Cc1cncn1C)C(=O)OCc1ccc(Cl)cc1 [Compound 10, N^α-acryloyl-N^π-methyl-L-histidine 4-chlorobenzyl ester]
[4]; rat, in vivo, po, 10 mg/kg
  AUC: 3747.0 ng·h/mL
  Cmax: 2579.9 ng/mL

## C=CC(=O)N[C@@H](Cc1cncn1C)C(=O)OCc1ccc(C(C)(C)C)cc1 [Compound 11, N^α-acryloyl-N^π-methyl-L-histidine 4-tert-butylbenzyl ester]
[4]; rat, in vivo, po, 10 mg/kg
  AUC: 4234.6 ng·h/mL
  Cmax: 2207.4 ng/mL

## C=CC(=O)N[C@@H](Cc1cncn1C)C(=O)OCCc1ccccc1 [Compound 12, N^α-acryloyl-N^π-methyl-L-histidine phenethyl ester]
[3]; oral single dose (Compound 12: 3 and 10 mg/kg; Carboxylic acid type A: 10 mg/kg), 15, 30 and 60 minutes after administration, FIG. 1
  anti-allodynia action as compared with the nerve injury control group: significant anti-allodynia action
[3]; oral, 10 mg/kg
  anti-allodynia action compared with Carboxylic acid type A in the same dose: stronger anti-allodynia action
[4]; rat, in vivo, po, 10 mg/kg
  AUC: 3971.6 ng·h/mL
  Cmax: 3111.6 ng/mL
[5]
  AUC: 8099.0 ng·h/mL
  Cmax: 4088.2 ng/mL

## C=CC(=O)N[C@@H](Cc1cncn1C)C(=O)OCCc1ccc(OC)cc1 [Compound 13, N^α-acryloyl-N^π-methyl-L-histidine 4-methoxyphenethyl ester]
[4]; rat, in vivo, po, 10 mg/kg
  AUC: 4058.3 ng·h/mL
  Cmax: 3163.4 ng/mL

## C=CC(=O)N[C@@H](Cc1cncn1C)C(=O)OCCc1ccc(C)cc1 [Compound 14, N^α-acryloyl-N^π-methyl-L-histidine 4-methylphenethyl ester]
[5]
  AUC: 5133.2 ng·h/mL
  Cmax: 779.2 ng/mL

## C=CC(=O)N[C@@H](Cc1cncn1C)C(=O)OCCc1ccc(Cl)cc1 [Compound 15, N^α-acryloyl-N^π-methyl-L-histidine 4-chlorophenethyl ester]
[4]; rat, in vivo, po, 10 mg/kg
  AUC: 3620.6 ng·h/mL
  Cmax: 2391.8 ng/mL

## C=CC(=O)N[C@@H](Cc1cncn1C)C(=O)OCCc1ccc(C(C)(C)C)cc1 [Compound 16, N^α-acryloyl-N^π-methyl-L-histidine 4-tert-butylphenethyl ester]
[4]; rat, in vivo, po, 10 mg/kg
  AUC: 3601.8 ng·h/mL
  Cmax: 2562.7 ng/mL

## C=CC(=O)N[C@@H](Cc1cncn1C)C(=O)OC(C)OC(=O)OC1CCCCC1 (stereo partly drawn) [Compound 17, N^α-acryloyl-N^π-methyl-L-histidine 1-(cyclohexyloxycarbonyloxy)ethyl ester]
[4]; rat, in vivo, po, 10 mg/kg
  AUC: 2704.9 ng·h/mL
  Cmax: 2044.3 ng/mL

## C=CC(=O)N[C@@H](Cc1cncn1C)C(=O)OC(c1ccccc1)c1ccccc1 [Compound 24, N^α-acryloyl-N^π-methyl-L-histidine diphenylmethyl ester]
[4]; rat, in vivo, po, 10 mg/kg
  AUC: 2614.2 ng·h/mL
  Cmax: 1495.3 ng/mL

## Cl.Cn1cncc1C[C@H](NC(=O)C=Cc1ccccc1O)C(=O)OCCc1ccccc1 [Compound 26, N^α-[3-(2-hydroxyphenyl)acryloyl]-N^π-methyl-L-histidine phenethyl ester hydrochloride]
[2]
  Suppressive Rate (%): 23.8%

## NCCC(=O)N[C@@H](Cc1cnc[nH]1)C(=O)O [carnosine, β-ananyl-L-histidine, reference compound]
[1]; administration into the lateral ventricle
  analgesic action: no significant analgesic action
